Data from ChEMBL document CHEMBL1255439 (2010).
Activity calls are given as the source filed them. The rule behind the calls is not given here.

Tests used:
[1] = test system: Burkholderia pseudomallei; test: Antibacterial activity against Burkholderia pseudomallei 1026b infected in BALB/c mouse assessed as protection against bacterial infection at 25 mg/kg, ip administered as single dose 6 hrs postinfection; assay type: functional; details: route intraperitoneal
[2] = test system: Burkholderia pseudomallei; test: Antibacterial activity against Burkholderia pseudomallei 1026b infected in mouse AMJ.2 cells assessed as decrease in intracellular bacterial growth at 1 ug/ml after 24 hrs by serial dilution plating technique in presence of 100 U/ml murine recombinant IFN-gamma; assay type: functional, organism-based
[3] = test system: Burkholderia pseudomallei; test: Antibacterial activity against Burkholderia pseudomallei 1026b infected in BALB/c mouse assessed as survival rate at 25 mg/kg, ip administered 6 hrs postinfection at 12 hrs interval for 3 days measured on day 20; assay type: functional; details: route intraperitoneal
[4] = test system: Burkholderia pseudomallei; test: Antibacterial activity against Burkholderia pseudomallei 1026b infected in BALB/c mouse assessed as decrease in bacterial count in spleen at 25 mg/kg, ip administered 6 hrs postinfection at 12 hrs interval for 3 days measured on day 65 in presence of murine recombinant IFN-gamma; assay type: functional, organism-based; set-up: dose 25 mg/kg
[5] = test system: Burkholderia pseudomallei; test: Antibacterial activity against Burkholderia pseudomallei 1026b infected in mouse AMJ.2 cells assessed as inhibition of bacterial replication at <= 10 ug/ml after 24 hrs by serial dilution plating technique; assay type: functional, organism-based
[6] = test system: Burkholderia pseudomallei; test: Antibacterial activity against Burkholderia pseudomallei 1026b infected in BALB/c mouse assessed as increase survival rate at 25 mg/kg, ip administered 6 hrs postinfection at 12 hrs interval for 3 days measured on day 20; assay type: functional, organism-based; set-up: dose 25 mg/kg
[7] = test system: Burkholderia pseudomallei; test: Antibacterial activity against Burkholderia pseudomallei 1026b infected in mouse AMJ.2 cells assessed as decrease in intracellular bacterial growth at 10 ug/ml after 24 hrs by serial dilution plating technique in presence of 1 U/ml murine recombinant IFN-gamma; assay type: functional, organism-based
[8] = test system: Burkholderia pseudomallei; test: Antibacterial activity against Burkholderia pseudomallei 1026b infected in mouse AMJ.2 cells assessed as intracellular bacterial count at 10 ug/ml measured on 24 hrs postinfection by serial dilution plating technique (reference value: 2 X 10^4 CFU/ml); assay type: functional
[9] = test system: Burkholderia pseudomallei; test: Antibacterial activity against Burkholderia pseudomallei 1026b infected in BALB/c mouse assessed as increase in survival rate at 25 mg/kg, ip administered 6 hrs postinfection at 12 hrs interval for 3 days measured on day 60 in presence of murine recombinant IFN-gamma; assay type: functional, organism-based; set-up: dose 25 mg/kg

CC(C)(O/N=C(\C(=O)N[C@@H]1C(=O)N2C(C(=O)[O-])=C(C[n+]3ccccc3)CS[C@H]12)c1csc(N)n1)C(=O)O [CEFTAZIDIME]
Activity [1]: 20%
inhibition [2]: Active
Activity [3]: 10%
inhibition [4]: Active
inhibition [5]: inactive
Activity [6]: inactive
inhibition [7]: Active
CFU [8]: >1 ×10⁶ /ml
Activity [9]: Active
